Test results from publication PMC4545932, “Inhibition by stabilization: targeting the Plasmodium falciparum aldolase–TRAP complex” (Malaria Journal, 2015).

Target: T1, rabbit muscle aldolase (Oryctolagus cuniculus, UniProt P00883)
T1 construct: gene ALDOA
T1 sequence (P00883 2-364): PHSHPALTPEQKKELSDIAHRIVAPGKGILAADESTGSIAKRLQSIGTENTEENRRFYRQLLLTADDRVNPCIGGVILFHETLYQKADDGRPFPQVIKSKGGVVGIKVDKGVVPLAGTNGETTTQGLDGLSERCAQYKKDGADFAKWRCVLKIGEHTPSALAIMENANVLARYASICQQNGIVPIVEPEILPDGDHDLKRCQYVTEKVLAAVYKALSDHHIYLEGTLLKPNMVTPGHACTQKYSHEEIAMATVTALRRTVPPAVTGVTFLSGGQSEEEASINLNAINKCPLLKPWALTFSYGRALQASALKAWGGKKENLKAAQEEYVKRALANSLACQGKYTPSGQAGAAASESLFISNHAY
Assay: coupled NADH assay (alpha-GDH/TPI), […] nm
Type: biochemical
Conditions: 2 mM F16P; pH 7.3; 25 °C; no TRAP peptide

O=P(O)(O)OC[C@H]1OC(O)(COP(=O)(O)O)[C@@H](O)[C@@H]1O (stereo partly shown) [fructose 1,6-bisphosphate]
coupled NADH assay (alpha-GDH/TPI), 340 nm: The assay was performed as described previously, however in the absence of TRAP-peptide
